Data taken from patent US10184933B2, “Compositions, systems and methods for gene expression noise drug screening and uses thereof” (priority 2013, dated 2019).
Counter-ions that a name gives are not always drawn.

Each compound was assayed on HIV-1 LTR promoter. Details: not given.
Assay type: cell-based

Compound	identified as variability enhancer (VE) in noise screen	identified as variability suppressor (VS) in noise screen
CCCSc1ccc2nc(NC(=O)OC)[nH]c2c1 [albendazole]	variability enhancers	–
[H]/N=C(/N)N/C(=N/[H])NCCc1ccccc1 [phenformin hydrochloride]	–	variability suppressors
C[C@H]1O[C@@H](O[C@H]2[C@@H](O)C[C@H](O[C@H]3[C@@H](O)C[C@H](O[C@H]4CC[C@@]5(C)[C@H](CC[C@@H]6[C@@H]5C[C@@H](O)[C@]5(C)[C@@H](C7=CC(=O)OC7)CC[C@]65O)C4)O[C@@H]3C)O[C@@H]2C)C[C@H](O)[C@@H]1O [digoxin]	variability enhancers	–
Cc1cc2nc3c(=O)[nH]c(=O)nc-3n(C[C@H](O)[C@H](O)[C@H](O)CO)c2cc1C [riboflavin]	variability enhancers	–
Nc1nc2nc[nH]c2c(=S)[nH]1 [thioguanine]	variability enhancers	–
CC(=O)[O-].[Hg+][c]1ccccc1 [phenylmercuric acetate]	variability enhancers	–
N=C(N)NCCN1CCCCCCC1 [V21, guanethidine sulfate]	variability enhancers	–
CNCCCC12CCC(c3ccccc31)c1ccccc12 [maprotiline hydrochloride]	–	variability suppressors
[O-][n+]1ccccc1[S-].[O-][n+]1ccccc1[S-].[Zn+2] [pyrithione zinc]	–	variability suppressors

Same assay, conditions: 10 uM, 24 hours

Compound	noise deviation of VM hit in the screen
Nc1ccn([C@@H]2O[C@H](CO)[C@@H](O)[C@@H]2O)c(=O)n1 [cytarabine, (β-D-arabinofuranosyl)cytosine]	+5 σ

Same assay, conditions: Pharmakon 1600 library, 10 uM, 24 hours, FIG. 10

Compound	identified as variability enhancer (VE) in noise screen
Cl.N=C(N)NCCC[C@H](N)C(=O)O [arginine hydrochloride]	variability enhancers
C[C@@H](O)CN(CCN(C[C@@H](C)O)C[C@@H](C)O)C[C@@H](C)O [editol]	variability enhancers
CN(C)C(=S)SSC(=S)N(C)C [thiram]	variability enhancers
N[C@@H](Cc1ccc(N(CCCl)CCCl)cc1)C(=O)O [melphalan]	variability enhancers
CCN(CC)C(=O)c1cccnc1 [nikethamide]	variability enhancers
S=c1nc[nH]c2nc[nH]c12 [V9, mercaptopurine]	variability enhancers
NCCS(=O)(=O)O [taurine]	variability enhancers
CC(CCc1ccc(O)cc1)NCCc1ccc(O)c(O)c1 (stereo not shown) [dobutamine hydrochloride]	variability enhancers
CO[C@H]1/C=C/O[C@@]2(C)Oc3c(C)c(O)c4c(O)c(c5c(nc6cc(C)ccn65)c4c3C2=O)NC(=O)/C(C)=C\C=C\[C@H](C)[C@H](O)[C@@H](C)[C@@H](O)[C@@H](C)[C@H](OC(C)=O)[C@@H]1C [rifaximin]	variability enhancers
C[C@H]1O[C@@H](O[C@H]2[C@@H](O)C[C@H](O[C@H]3[C@@H](O)C[C@H](O[C@H]4CC[C@@]5(C)[C@H](CC[C@@H]6[C@@H]5CC[C@]5(C)[C@@H](C7=CC(=O)OC7)CC[C@]65O)C4)O[C@@H]3C)O[C@@H]2C)C[C@H](O)[C@@H]1O [digitoxin]	variability enhancers
CCN1CC(CCN2CCOCC2)C(c2ccccc2)(c2ccccc2)C1=O (stereo not shown) [doxapram hydrochloride]	variability enhancers
CC(=O)O[C@H]1C(=O)[C@@]2(C)[C@H]([C@H](OC(=O)c3ccccc3)[C@]3(O)C[C@H](OC(=O)[C@H](O)[C@@H](NC(=O)c4ccccc4)c4ccccc4)C(C)=C1C3(C)C)[C@]1(OC(C)=O)CO[C@@H]1C[C@@H]2O [Taxol]	variability enhancers
Nc1c2ccccc2nc2ccccc12 [aminacrine]	variability enhancers
O=C(O)c1nn(Cc2ccc(Cl)cc2Cl)c2ccccc12 [lonidamine]	variability enhancers
CO[C@@]12[C@H](COC(N)=O)C3=C(C(=O)C(C)=C(N)C3=O)N1C[C@@H]1N[C@@H]12 [mitomycin c]	variability enhancers
CC(C)(C#N)c1cc(Cn2cncn2)cc(C(C)(C)C#N)c1 [V68, anastrozole]	variability enhancers
bleomycin [V66]	variability enhancers
Nc1ccn([C@H]2CC[C@@H](CO)O2)c(=O)n1 [zalcitabine]	variability enhancers
CC[C@]1(O)C[C@H]2CN(CCc3c([nH]c4ccccc34)[C@@](C(=O)OC)(c3cc4c(cc3OC)N(C=O)[C@H]3[C@@](O)(C(=O)OC)[C@H](OC(C)=O)[C@]5(CC)C=CCN6CC[C@]43[C@@H]65)C2)C1 [vincristine sulfate]	variability enhancers
COC(=O)C1=CCCN(C)C1 [Arecoline hydrobromide]	variability enhancers
O=C1OC2(c3ccccc31)c1cc(I)c(O)c(I)c1Oc1c2cc(I)c(O)c1I [erythrosine sodium]	variability enhancers
COC(=O)Nc1nc2ccc(Sc3ccccc3)cc2[nH]1 [fenbendazole]	variability enhancers
Nc1nc(Cl)nc2c1ncn2[C@@H]1O[C@H](CO)[C@@H](O)[C@@H]1F [clofarabine]	variability enhancers
C[C@@H]1O[C@@H](O[C@H]2C[C@@H](O)[C@]3(CO)[C@H]4[C@H](O)C[C@]5(C)[C@@H](C6=CC(=O)OC6)CC[C@]5(O)[C@@H]4CC[C@]3(O)C2)[C@H](O)[C@H](O)[C@H]1O [ouabain]	variability enhancers
CCC1=C[C@@H]2CN(C1)Cc1c([nH]c3ccccc13)[C@@](C(=O)OC)(c1cc3c(cc1OC)N(C)[C@H]1[C@@](O)(C(=O)OC)[C@H](OC(C)=O)[C@]4(CC)C=CCN5CC[C@]31[C@@H]54)C2 [vinorelbine]	variability enhancers
Cc1cc2nc3c(=O)[nH]c(=O)nc-3n(C[C@H](O)[C@H](O)[C@H](O)COP(=O)([O-])O)c2cc1C.[Na+] [riboflavin 5-phosphate sodium]	variability enhancers
CCc1c2c(nc3ccc(OC(=O)N4CCC(N5CCCCC5)CC4)cc13)-c1cc3c(c(=O)n1C2)COC(=O)[C@]3(O)CC [irinotecan hydrochloride]	variability enhancers
C=C(NC(=O)C(=C)NC(=O)c1csc(C2=N[C@@H]3c4csc(n4)[C@H]4NC(=O)c5csc(n5)[C@H]([C@](C)(O)[C@@H](C)O)NC(=O)[C@H]5CSC(=N5)/C(=C/C)NC(=O)[C@H]([C@@H](C)O)NC(=O)c5csc(n5)[C@]3(CC2)NC(=O)[C@H](C)NC(=O)C(=C)NC(=O)[C@H](C)NC(=O)[C@H]([C@@H](C)CC)N[C@@H]2C=Cc3c([C@H](C)O)cc(nc3[C@H]2O)C(=O)O[C@@H]4C)n1)C(N)=O [thiostrepton]	variability enhancers
CN(Cc1cnc2nc(N)nc(N)c2n1)c1ccc(C(=O)N[C@@H](CCC(=O)O)C(=O)O)cc1 (racemic) [methotrexate(+/−)]	variability enhancers
COC1=CC(=O)C[C@@H](C)[C@]12Oc1c(Cl)c(OC)cc(OC)c1C2=O [griseofulvin]	variability enhancers

Same assay, conditions: Pharmakon 1600 library, 10 uM, 24 hours, FIG. 12

Compound	identified as variability suppressor (VS) in noise screen
CN1C[C@H](C(=O)N[C@]2(C)O[C@@]3(O)[C@@H]4CCCN4C(=O)[C@H](Cc4ccccc4)N3C2=O)C=C2c3cccc4[nH]cc(c34)C[C@H]21 [ergotamine tartrate]	variability suppressors
N#Cc1nn(-c2c(Cl)cc(C(F)(F)F)cc2Cl)c(N)c1[S+]([O-])C(F)(F)F (stereo not shown) [fipmnil, fipronil]	variability suppressors
c1ccc2c(c1)Nc1ccccc1S2 [phenothiazine]	variability suppressors
CN(C)CCCOc1nn(Cc2ccccc2)c2ccccc12 [benzydamine hydrochloride]	variability suppressors
COc1ccc(Cc2nccc3cc(OC)c(OC)cc23)cc1OC [Papaverine hydrochloride]	variability suppressors
C[C@@H]1C[C@@H]([C@H](O)CC2CC(=O)NC(=O)C2)C(=O)[C@@H](C)C1 [cycloheximide]	variability suppressors
CCCCCC(=O)O[C@]1(C(C)=O)CC[C@H]2[C@@H]3CCC4=CC(=O)CC[C@]4(C)[C@H]3CC[C@@]21C [hydroxyprogesterone caproate]	variability suppressors
Nc1ncnc2c1ncn2[C@@H]1O[C@H](COP(=O)(O)O)[C@@H](O)[C@H]1O [adenosine phosphate]	variability suppressors
meclocycline sulfosalicylate	variability suppressors
COP(=O)(OC)OC=C(Cl)Cl [dichlorvos]	variability suppressors
arsenic trioxide	variability suppressors
COP(=O)(OC)C(O)C(Cl)(Cl)Cl (stereo not shown) [trichlorfon]	variability suppressors
